Values of other authors in PMC10957545, “Anti-diabetic and anti-inflammatory bioactive hits from Coriaria intermedia Matsum. stem and Dracontomelon dao (Blanco) Merr. & Rolfe bark through bioassay-guided fractionation and liquid chromatography-tandem mass spectrometry” (Frontiers in Pharmacology, 2024).
Values after ≈ are worked out from the molar mass of the structure shown. Read-outs that look alike come from different tables or passages of the source.

Key:
[1] = target: α-glucosidase (AGLUC)
[2] = tested on: lipopolysaccharide (LPS)-induced nitric oxide (NO), prostaglandin E2 (PGE2), and interleukin-6 (IL-6) production; design: method as in BenSaad et al., 2017; conditions: ref BenSaad et al., 2017
[3] = tested on: LPS-induced nuclear factor kappa B (NF-κB) activation; design: method as in Oh et al., 2010; conditions: ref Oh et al., 2010
[4] = tested on: p38, ERK, and PI 3-kinase/Akt and ROS accumulation; design: method as in Moon et al., 2018; conditions: ref Moon et al., 2018
[5] = target: 15-lipoxygenase-1 (LOX)
[6] = tested on: advanced glycation end products formation; design: method as in Jung et al., 2012; conditions: ref Jung et al., 2012; read-out: inhibition of advanced glycation end products formation, IC50
[7] = tested on: α-amylase; design: method as in Kato et al., 2008; conditions: at a concentration of 400 µM; ref Kato et al., 2008
[8] = tested on: maltase; design: method as in Kato et al., 2008; conditions: at a concentration of 400 µM; ref Kato et al., 2008
[9] = tested on: sucrase; design: method as in Kato et al., 2008; conditions: at a concentration of 400 µM; ref Kato et al., 2008
[10] = tested on: glucose uptake; design: method as in Xu et al., 2018; conditions: ref Xu et al., 2018
[11] = tested on: beta pancreatic cells; design: method as in Xu et al., 2018; conditions: ref Xu et al., 2018
[12] = tested on: neuroinflammation; design: method as in Jeon et al., 2020; conditions: abscisic acid intake; ref Jeon et al., 2020
[13] = tested on: colon inflammation; design: method as in Guri et al., 2011; conditions: abscisic acid intake; ref Guri et al., 2011
[14] = tested on: proinflammatory cytokines and mediators; cyclooxygenase-2 expression; design: method as in Zhao et al., 2008, as cited in Li et al. (2018); conditions: ref Zhao et al., 2008, as cited in Li et al. (2018)
[15] = tested on: streptozotocin-induced diabetic rats; design: method as in Nandini and Naik, 2019; conditions: treated orally, end of the study; ref Nandini and Naik, 2019
[16] = tested on: ovalbumin-induced asthmatic mice; design: method as in Jin and Yi, 2023; conditions: via the AMP-activated protein kinase pathway; ref Jin and Yi, 2023
[17] = tested on: mice fed with a high fat diet (HFD); design: method as in Liao et al., 2022; conditions: ref Liao et al., 2022
[18] = tested on: different cancer cell lines; design: method as in Li et al., 2018; conditions: both in vitro and in vivo; ref Li et al., 2018
[19] = tested on: spike receptor binding domain (spike-RBD) of SARS-CoV-2 virus / human angiotensin-converting enzyme 2 (hACE2); design: method as in Yang et al., 2021; conditions: dose-dependent manner; ref Yang et al., 2021
[20] = tested on: normal cells or tissues
[21] = isolated from Terminalia macroptera leaves, ref Pham et al., 2014

O=c1oc2c(O)c(O)cc3c(=O)oc4c(O)c(O)cc1c4c23 [Compound 1, ellagic acid]
IC50 AGLUC ([1]; previously reported, ref You et al., 2012): 2.18 [You et al. (2012)] µg/mL
effect on LPS-induced NO, PGE2 and IL-6 production [2]: inhibition

O=c1c(O[C@@H]2O[C@H](CO)[C@H](O)[C@H](O)[C@H]2O)c(-c2ccc(O)c(O)c2)oc2cc(O)cc(O)c12 [hyperin, reference compound]
IC50 AGLUC ([1]; ref Zhang et al., 2013): 19.26 µg/mL (≈ 41.5 µM)

CCCCCCCC/C=C\CCCCCCCC(N)=O [Compound 6, oleamide]
IC50 AGLUC ([1]; ref Fang et al., 2022): 30.69 ± 1.47 [Fang et al. (2022)] µg/mL
effect on LPS-induced NF-κB activation [3]: inhibition
effect on p38, ERK, and PI 3-kinase/Akt and ROS accumulation [4]: suppression

COc1cc2oc(=O)ccc2cc1O [Compound 4, isoscopoletin]
IC50 ([5]; ref Deng et al., 2007): 15.1 µM
IC50 LOX ([5]; µM value given in µg/mL, ref Deng et al., 2007): 2.902 [Deng et al. (2007)] µg/mL
IC50 [6]: 18.8 ± 0.5 µM
% inhibition of α-amylase [7]: 0.2%
% inhibition of maltase [8]: 32.2%
% inhibition of sucrase [9]: 20.9%

CC1=CC(=O)CC(C)(C)[C@@]1(O)/C=C/C(C)=C\C(=O)O [Compound 9, abscisic acid]
effect on glucose uptake in vitro [10]: regulates
effect on insulin production in beta pancreatic cells [11]: can stimulate
effect on neuroinflammation [12]: reduces
effect on colon inflammation [13]: reduces

O=C(O[C@@H]1O[C@@H]2COC(=O)c3cc(O)c(O)c(O)c3-c3c(cc(O)c(O)c3O)C(=O)O[C@H]([C@H]1O)[C@@H]2O)c1cc(O)c(O)c(O)c1 [Compound 2, corilagin]
IC50 [1, 21]: 2580 ± 80 nM
IC50 [5, 21]: 41 ± 4 µM
IC50 LOX ([5]; µM value given in µg/mL, ref Pham et al., 2014): 26.01 ± 2.5 [Pham et al. (2014)] µg/mL
effect on cyclooxygenase-2 expression ([14]; protein and gene level): reduce
effect on production of proinflammatory cytokines and mediators [14]: significantly reduce
fasting blood glucose levels compared to diabetic control rats [15]: reduced
airway inflammation and collagen deposition [16]: reduce
glucose intolerance and insulin resistance ([17]; HFD-fed mice): improve
plasma lipid concentrations ([17]; HFD-fed mice): improved
HFD-induced accumulation of fat in the liver and liver injury [17]: reduce
antitumor activities [18]: exhibit antitumor activities
binding of spike-RBD to hACE2 [19]: inhibit
toxic effects on normal cells or tissues [20]: almost no toxic effects

Oc1cccc(O)c1O [Compound 14, pyrogallol]
IC50 LOX ([5]; mM value given in µg/mL, ref Yasumoto et al. (1970)): 1.097 × 10^3 [Yasumoto et al. (1970)] µg/mL
IC50 ([5]; ref Yasumoto, Yamamoto, and Mitsuda, 1970): 8700 µM
